Experimental data as given in US20180020668A1, “Agricultural Mixtures” (priority 2015, published 2018).

How the values were obtained:
Type in all cases: in vivo
Rhizoctonia = test: Corn emergence, vigor and pest infestation study (Example 1, two plantings); settings: for Plant Emergence: corn, field inoculated with Rhizoctonia, seed treatment, rates per treatment in mg ai/seed; for Plant Emergence / Pest Severity / Pest Incidence / Plant Vigor: about 30 DAP; for Pest Severity: percentage of infected plants; for Pest Incidence / Plant Vigor: rated on a scale of 1 to 9; for Plant Yield: about six months after planting
corn [1] = test: Corn plant stand establishment and yield study (Example 2); settings: seed treatment, rates in mg active[s] per seed
Experimental: A study was conducted in order to determine the effects of seed treatments on the number of corn plants per acre and yield. One acre was planted with seeds treated as indicated below in a randomized block design. Treatments were applied to the seeds in a manner known by those of skill in the art. The number of plants was determined for each treatment on four different days before harvest. After harvest, the yield of the plants was determined. The results of this study can be seen below in Tables 2 and 3.

corn [2] = test: Another corn plant stand establishment and yield study (Example 3); settings: seed treatment, rates in mg active[s] per seed
Experimental: Another study was conducted in order to determine the effects of seed treatments on the number of corn plants per acre and yield. The study design was the same as the study described in Example 1. The results of this study can be seen below in Tables 3 and 4.

CN1COCN(Cc2cnc(Cl)s2)C1=N[N+](=O)[O-] [Thiamethoxam, 3-[(2-Chloro-1,3-thiazol-5-yl)methyl]-5-methyl-N-nitro-1,3,5-oxadiazinan-4-imine]
Plant Emergence (Rhizoctonia; first planting): 19800 plants per acre | Plant Emergence (Rhizoctonia; second planting): 25450 plants per acre | Pest Severity (Rhizoctonia; first planting): 41.3% | Pest Incidence (Rhizoctonia; first planting): 3.8 | Plant Vigor (Rhizoctonia; first planting): 4.0 | Plant Yield (Rhizoctonia; first planting): 60.8 Bu/A | Pest Severity (Rhizoctonia; second planting): 16.3% | Pest Incidence (Rhizoctonia; second planting): 6.5 | Plant Vigor (Rhizoctonia; second planting): 5.5 | Plant Yield (Rhizoctonia; second planting): 106.7 Bu/A | Corn Plant Stand - Number of Plants Per Acre (corn [1]; 34 DAP): 22052 Plants Per Acre | Corn Plant Stand - Number of Plants Per Acre (corn [1]; 116 DAP): 20010 Plants Per Acre | Corn Plant Yield (corn [2]): 172 Bushels/Acre
